Measured values from ChEMBL document CHEMBL1201862, “PubChem BioAssay data set” (2004).
Active and inactive are the calls of the source.

Experiments:
[1] = NIH-3T3 fibroblast cytotoxicity, dose response, cytotoxicity control, cell-based, fluorescence, Alamar Blue, secondary assay (AID 2327); type: functional;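 also: NIH-3T3 mouse fibroblasts cultured with fluconazole at 8 µg/mL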
[2] = C. albicans growth with fluconazole, confirmation, fluorescence, retest (AID 2467); type: functional, cell-based
[3] = inhibitors of Bluetongue virus cytopathic effect, confirmation, arbovirus, BSR cells (AID 1250); type: functional;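 also: protection from viral cytopathic effect measured as cell viability by ATP luminescence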
[4] = molecular target: Glyceraldehyde-3-phosphate dehydrogenase (Homo sapiens, UniProt P04406)
Sequence of Glyceraldehyde-3-phosphate dehydrogenase (P04406 whole entry): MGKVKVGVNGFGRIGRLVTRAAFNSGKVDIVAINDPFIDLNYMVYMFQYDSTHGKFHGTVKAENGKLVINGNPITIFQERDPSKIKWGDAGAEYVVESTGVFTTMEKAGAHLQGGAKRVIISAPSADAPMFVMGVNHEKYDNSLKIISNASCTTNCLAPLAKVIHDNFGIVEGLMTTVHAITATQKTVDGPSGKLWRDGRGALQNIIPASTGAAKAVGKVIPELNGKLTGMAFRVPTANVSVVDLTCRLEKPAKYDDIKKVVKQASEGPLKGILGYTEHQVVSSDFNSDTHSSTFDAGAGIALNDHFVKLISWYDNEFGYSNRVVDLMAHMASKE

Bcl-2-related protein A1 [5] = molecular target: T1, Bcl-2-related protein A1 (Mus musculus, UniProt Q07440); test: Bfl-1 inhibitors blocking BH3 peptide binding, confirmation, biochemical, TR-FRET, mouse Bfl-1 (AID 621);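 also: TR-FRET binding of GST-Bfl-1 to FITC-labelled Bid peptide via terbium antibody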
T1 sequence (Q07440 whole entry): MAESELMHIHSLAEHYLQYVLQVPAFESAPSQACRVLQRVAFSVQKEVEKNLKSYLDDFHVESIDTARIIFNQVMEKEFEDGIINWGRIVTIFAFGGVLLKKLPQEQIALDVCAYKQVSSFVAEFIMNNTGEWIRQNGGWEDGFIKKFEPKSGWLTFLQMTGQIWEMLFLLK

Bcl-2-related protein A1 [6] = molecular target: T1, Bcl-2-related protein A1; test: Bfl-1 binding inhibitors, SAR follow-up, biochemical, fluorescence polarization (AID 1070)
[7] = inhibitors of intracellular T. cruzi replication, confirmation, NIH3T3 host cells, beta-gal luminescence (AID 2044); type: functional, cell-based;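 also: intracellular parasites grown in NIH/3T3 mouse fibroblasts as host cells; luminescent beta-galactosidase reporter signal from transgenic T. cruzi replicating inside host cells; inhibitors lower the luminescence signal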
[8] = molecular target: Voltage-gated inwardly rectifying potassium channel KCNH2 (Homo sapiens, UniProt Q12809); test: hERG protection from proarrhythmic block, potency, dose response, cell-based, thallium flux (AID 2121); type: ADME
Sequence of Voltage-gated inwardly rectifying potassium channel KCNH2 (Q12809 whole entry): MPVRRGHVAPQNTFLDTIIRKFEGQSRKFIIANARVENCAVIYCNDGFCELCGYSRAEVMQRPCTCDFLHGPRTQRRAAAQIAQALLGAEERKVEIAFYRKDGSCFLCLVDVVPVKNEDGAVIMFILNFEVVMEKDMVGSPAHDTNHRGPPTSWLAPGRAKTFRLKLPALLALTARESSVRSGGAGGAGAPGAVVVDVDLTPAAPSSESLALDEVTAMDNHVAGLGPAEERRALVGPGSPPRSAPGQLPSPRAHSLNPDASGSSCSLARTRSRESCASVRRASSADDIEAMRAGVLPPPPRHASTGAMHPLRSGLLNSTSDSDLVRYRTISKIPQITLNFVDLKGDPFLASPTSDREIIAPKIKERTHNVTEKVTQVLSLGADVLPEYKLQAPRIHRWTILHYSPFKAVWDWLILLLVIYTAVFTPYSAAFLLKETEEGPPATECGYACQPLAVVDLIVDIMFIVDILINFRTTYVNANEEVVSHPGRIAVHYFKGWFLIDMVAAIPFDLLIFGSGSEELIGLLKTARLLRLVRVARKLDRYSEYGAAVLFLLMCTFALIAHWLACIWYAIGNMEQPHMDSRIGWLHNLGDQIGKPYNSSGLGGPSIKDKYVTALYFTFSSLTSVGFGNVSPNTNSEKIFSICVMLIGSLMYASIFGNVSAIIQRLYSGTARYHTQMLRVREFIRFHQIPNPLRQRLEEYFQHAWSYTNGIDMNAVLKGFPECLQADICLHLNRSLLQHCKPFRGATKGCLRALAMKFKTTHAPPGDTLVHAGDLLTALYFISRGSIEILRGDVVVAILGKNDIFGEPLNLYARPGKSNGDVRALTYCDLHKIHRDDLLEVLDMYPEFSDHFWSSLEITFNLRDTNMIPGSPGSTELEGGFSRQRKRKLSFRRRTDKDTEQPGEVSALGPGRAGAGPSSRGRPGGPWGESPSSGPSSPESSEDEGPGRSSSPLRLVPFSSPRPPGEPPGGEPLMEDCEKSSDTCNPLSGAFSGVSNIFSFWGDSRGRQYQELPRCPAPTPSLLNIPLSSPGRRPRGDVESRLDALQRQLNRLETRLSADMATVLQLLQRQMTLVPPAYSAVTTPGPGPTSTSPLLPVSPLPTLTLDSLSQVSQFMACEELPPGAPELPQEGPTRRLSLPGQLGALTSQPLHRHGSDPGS

[9] = cytotoxicity toward NIH3T3 fibroblasts, dose response, counter-screen, cell-based, ATP luminescence, mouse fibroblasts (AID 2010); type: functional;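 also: cells exposed to compound for about 90 hours before reading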
[10] = molecular target: Mitogen-activated protein kinase 10 (Homo sapiens, UniProt P53779); test: Dose response biochemical screening assay for inhibitors of c-Jun N-Terminal Kinase 3 (JNK3). [Related pubchem assays: 746 ]
Sequence of Mitogen-activated protein kinase 10 (P53779 whole entry): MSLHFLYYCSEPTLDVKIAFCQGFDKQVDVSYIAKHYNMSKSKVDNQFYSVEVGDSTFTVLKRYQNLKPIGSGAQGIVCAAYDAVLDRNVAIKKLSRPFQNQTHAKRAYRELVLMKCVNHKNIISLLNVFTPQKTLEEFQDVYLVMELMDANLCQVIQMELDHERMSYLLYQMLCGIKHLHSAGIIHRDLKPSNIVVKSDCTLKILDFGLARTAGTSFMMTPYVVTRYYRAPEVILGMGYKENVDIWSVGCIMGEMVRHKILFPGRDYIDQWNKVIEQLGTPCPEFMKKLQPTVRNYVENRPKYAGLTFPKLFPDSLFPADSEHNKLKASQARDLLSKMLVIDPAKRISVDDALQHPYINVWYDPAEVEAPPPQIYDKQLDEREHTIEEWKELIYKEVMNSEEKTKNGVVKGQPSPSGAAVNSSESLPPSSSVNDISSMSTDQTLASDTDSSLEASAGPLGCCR

[11] = molecular target: Nuclear receptor subfamily 5 group A member 2 (Homo sapiens, UniProt O00482); type: functional, cell-based;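 also: HEK293T cells transfected with LRH-1 and a StAR promoter luciferase reporter; potency for inhibitors that lower LRH-1 driven reporter light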
Sequence of Nuclear receptor subfamily 5 group A member 2 (O00482 whole entry): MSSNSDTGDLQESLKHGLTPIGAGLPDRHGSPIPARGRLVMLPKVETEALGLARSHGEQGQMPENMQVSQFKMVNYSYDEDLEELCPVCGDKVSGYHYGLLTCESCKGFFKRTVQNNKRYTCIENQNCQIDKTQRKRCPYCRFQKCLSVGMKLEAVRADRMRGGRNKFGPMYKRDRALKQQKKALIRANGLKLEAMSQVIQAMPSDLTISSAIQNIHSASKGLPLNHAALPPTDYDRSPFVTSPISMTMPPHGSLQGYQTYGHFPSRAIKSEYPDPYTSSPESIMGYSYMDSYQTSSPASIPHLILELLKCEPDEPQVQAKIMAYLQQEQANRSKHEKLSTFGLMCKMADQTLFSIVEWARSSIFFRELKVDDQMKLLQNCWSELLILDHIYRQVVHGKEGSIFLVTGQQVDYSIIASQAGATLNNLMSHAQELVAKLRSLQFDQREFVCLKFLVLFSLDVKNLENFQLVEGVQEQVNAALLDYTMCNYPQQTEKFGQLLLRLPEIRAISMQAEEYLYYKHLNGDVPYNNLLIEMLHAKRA

Steroidogenic factor 1 = Steroidogenic factor 1 (Homo sapiens, UniProt Q13285); test: Counterscreen for inverse agonists of the liver receptor homolog-1 (LRH-1; NR5A2): Luminescence-based cell-based high throughput dose response assay to identify inverse agonists of the Steroidogenic Factor 1 Nuclear Receptor (SF1; NR5A1).; type: functional
Sequence of Steroidogenic factor 1 (Q13285 whole entry): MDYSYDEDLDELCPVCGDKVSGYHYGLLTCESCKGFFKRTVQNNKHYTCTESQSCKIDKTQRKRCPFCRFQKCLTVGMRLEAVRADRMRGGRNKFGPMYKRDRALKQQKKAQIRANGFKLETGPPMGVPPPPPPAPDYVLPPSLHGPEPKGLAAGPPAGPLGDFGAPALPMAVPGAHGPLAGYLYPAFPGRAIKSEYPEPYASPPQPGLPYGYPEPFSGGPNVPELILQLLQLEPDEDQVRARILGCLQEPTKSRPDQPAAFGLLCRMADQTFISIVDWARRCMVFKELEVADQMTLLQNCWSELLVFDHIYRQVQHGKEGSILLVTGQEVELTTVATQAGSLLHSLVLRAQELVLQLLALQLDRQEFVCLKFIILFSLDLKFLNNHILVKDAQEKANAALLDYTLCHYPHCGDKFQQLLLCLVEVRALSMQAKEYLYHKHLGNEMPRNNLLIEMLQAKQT

[12] = StAR promoter reporter inhibition counter-screen, dose response, counter-screen for LRH-1 inverse agonist project, cell-based, luminescence, luciferase reporter (AID 651969); type: functional
Cytochrome P450 2C19 = Cytochrome P450 2C19 (Homo sapiens, UniProt P33261); test: qHTS Assay for Inhibitors and Substrates of Cytochrome P450 2C19. [Related pubchem assays: 410 ]; type: ADME; details: read-out: Potency
Sequence of Cytochrome P450 2C19 (P33261 whole entry): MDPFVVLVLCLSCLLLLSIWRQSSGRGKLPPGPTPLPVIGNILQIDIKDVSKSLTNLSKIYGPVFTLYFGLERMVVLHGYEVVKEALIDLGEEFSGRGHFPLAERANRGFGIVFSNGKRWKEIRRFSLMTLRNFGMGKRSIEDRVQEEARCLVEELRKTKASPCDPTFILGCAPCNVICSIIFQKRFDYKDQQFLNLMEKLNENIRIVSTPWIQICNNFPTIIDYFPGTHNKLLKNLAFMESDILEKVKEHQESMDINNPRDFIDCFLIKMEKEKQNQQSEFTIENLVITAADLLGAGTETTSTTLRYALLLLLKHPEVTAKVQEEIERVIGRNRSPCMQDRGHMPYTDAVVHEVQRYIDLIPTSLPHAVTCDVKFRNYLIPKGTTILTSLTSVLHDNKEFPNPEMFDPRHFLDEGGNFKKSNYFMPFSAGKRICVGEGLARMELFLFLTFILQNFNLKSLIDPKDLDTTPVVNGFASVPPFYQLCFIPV

Caspase-3 = molecular target: T2, Caspase-3 (Homo sapiens, UniProt P42574); type: functional;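 also: Dose-response selectivity test against caspase-3 for candidate inhibitors of sentrin-specific proteases (SENPs)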
T2 sequence (P42574 whole entry): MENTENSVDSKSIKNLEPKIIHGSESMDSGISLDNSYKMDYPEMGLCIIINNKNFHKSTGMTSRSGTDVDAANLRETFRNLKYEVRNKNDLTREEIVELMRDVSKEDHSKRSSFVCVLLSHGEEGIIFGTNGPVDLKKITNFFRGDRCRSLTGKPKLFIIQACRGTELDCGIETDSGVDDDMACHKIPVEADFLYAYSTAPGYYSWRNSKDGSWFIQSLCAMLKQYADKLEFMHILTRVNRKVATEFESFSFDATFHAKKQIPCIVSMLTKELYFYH

[13] = molecular target: T3, Sentrin-specific protease 7 (Homo sapiens, UniProt Q9BQF6); type: functional;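 also: Luminescence-based dose-response confirmation of ultra-high-throughput screening hits, measuring inhibition of SENP7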
T3 sequence (Q9BQF6 whole entry): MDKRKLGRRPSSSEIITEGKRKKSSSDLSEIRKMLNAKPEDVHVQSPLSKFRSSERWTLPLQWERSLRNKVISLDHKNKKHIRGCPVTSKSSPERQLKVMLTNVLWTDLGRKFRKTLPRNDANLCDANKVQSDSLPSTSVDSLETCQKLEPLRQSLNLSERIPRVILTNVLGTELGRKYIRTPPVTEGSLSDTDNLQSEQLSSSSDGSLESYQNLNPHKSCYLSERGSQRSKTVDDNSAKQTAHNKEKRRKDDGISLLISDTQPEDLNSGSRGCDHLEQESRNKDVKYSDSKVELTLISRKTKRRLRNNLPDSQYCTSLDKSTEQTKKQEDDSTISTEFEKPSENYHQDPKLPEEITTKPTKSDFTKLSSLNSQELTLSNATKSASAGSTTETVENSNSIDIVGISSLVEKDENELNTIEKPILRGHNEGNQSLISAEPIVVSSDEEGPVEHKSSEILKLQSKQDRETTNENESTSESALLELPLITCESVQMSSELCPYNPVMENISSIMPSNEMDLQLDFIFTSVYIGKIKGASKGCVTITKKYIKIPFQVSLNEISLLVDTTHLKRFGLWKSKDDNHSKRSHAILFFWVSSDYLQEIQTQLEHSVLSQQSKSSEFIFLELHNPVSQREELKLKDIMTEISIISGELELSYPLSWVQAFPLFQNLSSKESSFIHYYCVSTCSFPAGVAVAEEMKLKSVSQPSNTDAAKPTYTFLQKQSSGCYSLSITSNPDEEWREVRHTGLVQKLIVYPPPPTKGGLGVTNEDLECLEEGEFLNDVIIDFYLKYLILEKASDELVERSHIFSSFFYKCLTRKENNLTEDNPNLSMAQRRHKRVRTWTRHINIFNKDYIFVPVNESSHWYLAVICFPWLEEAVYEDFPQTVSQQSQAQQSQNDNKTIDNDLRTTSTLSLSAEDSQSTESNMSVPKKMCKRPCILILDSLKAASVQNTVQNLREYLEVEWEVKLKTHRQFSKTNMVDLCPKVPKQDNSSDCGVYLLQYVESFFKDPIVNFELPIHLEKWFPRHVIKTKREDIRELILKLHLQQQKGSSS

[14] = molecular target: T4, Sentrin-specific protease 6 (Homo sapiens, UniProt Q9GZR1); type: functional;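 also: Luminescence-based dose-response confirmatory assay of SENP6 inhibition, following up an ultra-high-throughput screen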
T4 sequence (Q9GZR1 whole entry): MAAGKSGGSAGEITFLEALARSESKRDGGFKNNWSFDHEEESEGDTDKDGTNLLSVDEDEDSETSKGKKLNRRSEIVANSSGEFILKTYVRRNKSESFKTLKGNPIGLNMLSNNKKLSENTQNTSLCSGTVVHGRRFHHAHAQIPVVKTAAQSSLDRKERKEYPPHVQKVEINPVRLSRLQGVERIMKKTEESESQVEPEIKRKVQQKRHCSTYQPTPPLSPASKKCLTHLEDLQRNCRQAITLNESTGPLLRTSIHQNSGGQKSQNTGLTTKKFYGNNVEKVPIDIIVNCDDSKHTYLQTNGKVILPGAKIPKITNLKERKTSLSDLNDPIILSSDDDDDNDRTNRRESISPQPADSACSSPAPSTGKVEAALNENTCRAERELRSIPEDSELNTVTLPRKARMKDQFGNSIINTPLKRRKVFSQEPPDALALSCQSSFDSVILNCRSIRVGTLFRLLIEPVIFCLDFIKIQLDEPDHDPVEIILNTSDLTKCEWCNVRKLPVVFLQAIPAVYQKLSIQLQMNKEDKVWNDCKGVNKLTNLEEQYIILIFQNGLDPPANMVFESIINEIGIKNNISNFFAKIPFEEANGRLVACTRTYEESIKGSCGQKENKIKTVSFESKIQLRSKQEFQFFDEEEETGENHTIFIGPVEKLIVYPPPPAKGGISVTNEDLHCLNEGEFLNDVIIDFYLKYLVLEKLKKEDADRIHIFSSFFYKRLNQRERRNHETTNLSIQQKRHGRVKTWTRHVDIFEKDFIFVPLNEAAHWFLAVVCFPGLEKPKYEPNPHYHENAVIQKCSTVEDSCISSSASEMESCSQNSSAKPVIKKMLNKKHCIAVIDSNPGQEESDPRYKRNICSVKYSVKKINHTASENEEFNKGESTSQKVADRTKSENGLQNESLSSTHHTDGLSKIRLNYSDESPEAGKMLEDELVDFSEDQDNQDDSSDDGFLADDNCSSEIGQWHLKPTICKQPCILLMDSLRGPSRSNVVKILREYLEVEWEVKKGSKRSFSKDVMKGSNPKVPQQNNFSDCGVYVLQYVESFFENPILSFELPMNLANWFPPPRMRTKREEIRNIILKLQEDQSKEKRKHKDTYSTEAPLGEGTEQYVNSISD

[15] = molecular target: T5, Sentrin-specific protease 8 (Homo sapiens, UniProt Q96LD8); type: functional;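 also: luminescence read-out of SENP8 inhibition, dose-response confirmation following an ultra-high-throughput screen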
T5 sequence (Q96LD8 whole entry): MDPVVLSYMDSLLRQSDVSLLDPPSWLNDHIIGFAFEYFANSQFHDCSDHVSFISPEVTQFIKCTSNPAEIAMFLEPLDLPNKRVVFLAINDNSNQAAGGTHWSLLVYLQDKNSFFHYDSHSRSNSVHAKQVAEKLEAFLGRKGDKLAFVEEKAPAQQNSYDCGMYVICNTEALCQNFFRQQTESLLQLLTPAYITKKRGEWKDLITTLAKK

HEK293 [16] = test: NOD1 signaling inhibitors, primary screen, cell-based, luminescence, uHTS (AID 1578); type: functional; details: Homo sapiens
HEK293 [17] = test: cells; type: functional, cell-based; details: Homo sapiens
HEK293 [18] = test: cells; type: functional, cell-based; details: Homo sapiens; remark: listed apart in the source
HEK293 [19] = test: NOD2 signaling inhibitors in MDP-stimulated cells, cell-based, uHTS, luminescence (AID 2001); type: functional; details: Homo sapiens
[20] = cytotoxicity in HPDE-C7 cells, cell-based, fluorescence, HTS (AID 430); type: functional; details: Homo sapiens
[21] = cytotoxicity in KRAS-transformed pancreatic duct cells, primary screen, cell-based, fluorescence, HTS (AID 431); type: functional; details: Homo sapiens;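 also: cell line used: HPDE-C7K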
Estrogen receptor = molecular target: T6, Estrogen receptor (Homo sapiens, UniProt P03372); test: potentiators of ERα–SRC-1 coactivator binding, dose response, biochemical, TR-FRET, ERα LBD (AID 737)
T6 sequence (P03372 whole entry): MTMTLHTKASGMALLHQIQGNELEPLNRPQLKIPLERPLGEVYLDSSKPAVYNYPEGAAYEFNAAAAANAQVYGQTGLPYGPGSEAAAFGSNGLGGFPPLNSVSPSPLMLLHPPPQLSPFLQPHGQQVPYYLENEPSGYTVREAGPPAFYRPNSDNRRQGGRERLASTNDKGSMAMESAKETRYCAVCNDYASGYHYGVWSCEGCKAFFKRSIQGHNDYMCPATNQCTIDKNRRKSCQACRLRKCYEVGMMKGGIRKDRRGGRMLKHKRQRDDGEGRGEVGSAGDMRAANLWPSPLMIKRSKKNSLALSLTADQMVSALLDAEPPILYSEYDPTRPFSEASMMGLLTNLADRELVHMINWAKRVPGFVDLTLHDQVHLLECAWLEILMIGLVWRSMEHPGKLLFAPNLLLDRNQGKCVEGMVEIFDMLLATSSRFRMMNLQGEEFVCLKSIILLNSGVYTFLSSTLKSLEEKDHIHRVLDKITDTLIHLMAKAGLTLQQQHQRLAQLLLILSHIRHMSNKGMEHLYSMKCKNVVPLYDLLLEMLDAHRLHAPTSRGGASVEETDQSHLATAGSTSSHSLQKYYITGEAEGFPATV

Vero = Vero cell cytotoxicity, cytotoxicity control for flavivirus capping enzyme inhibitors (AID 588742); type: functional; details: Chlorocebus sabaeus
[22] = molecular target: Sphingosine 1-phosphate receptor 2 (Homo sapiens, UniProt O95136); test: Dose Response Cell Based Assay for Agonists of the S1P2 Receptor of Purchased Analogues. [Related pubchem assays: 729, 843, 854, 736 ]; type: functional
Sequence of Sphingosine 1-phosphate receptor 2 (O95136 whole entry): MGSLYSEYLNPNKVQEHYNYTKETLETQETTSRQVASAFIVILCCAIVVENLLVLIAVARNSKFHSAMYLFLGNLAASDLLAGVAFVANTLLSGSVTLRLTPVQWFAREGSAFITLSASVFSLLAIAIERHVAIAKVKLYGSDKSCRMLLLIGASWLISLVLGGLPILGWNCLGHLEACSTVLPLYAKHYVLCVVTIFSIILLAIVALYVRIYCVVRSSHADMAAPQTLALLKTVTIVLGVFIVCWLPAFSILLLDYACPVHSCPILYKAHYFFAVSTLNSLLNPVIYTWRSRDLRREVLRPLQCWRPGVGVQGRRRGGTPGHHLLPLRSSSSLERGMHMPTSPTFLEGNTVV

Estrogen receptor beta = Estrogen receptor beta (Homo sapiens, UniProt Q92731);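 also: recombinant ER-beta bound to coactivator SRC1 peptide in presence of estradiol agonist; inhibitors block coactivator peptide binding and lower the FRET signal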
Sequence of Estrogen receptor beta (Q92731 whole entry): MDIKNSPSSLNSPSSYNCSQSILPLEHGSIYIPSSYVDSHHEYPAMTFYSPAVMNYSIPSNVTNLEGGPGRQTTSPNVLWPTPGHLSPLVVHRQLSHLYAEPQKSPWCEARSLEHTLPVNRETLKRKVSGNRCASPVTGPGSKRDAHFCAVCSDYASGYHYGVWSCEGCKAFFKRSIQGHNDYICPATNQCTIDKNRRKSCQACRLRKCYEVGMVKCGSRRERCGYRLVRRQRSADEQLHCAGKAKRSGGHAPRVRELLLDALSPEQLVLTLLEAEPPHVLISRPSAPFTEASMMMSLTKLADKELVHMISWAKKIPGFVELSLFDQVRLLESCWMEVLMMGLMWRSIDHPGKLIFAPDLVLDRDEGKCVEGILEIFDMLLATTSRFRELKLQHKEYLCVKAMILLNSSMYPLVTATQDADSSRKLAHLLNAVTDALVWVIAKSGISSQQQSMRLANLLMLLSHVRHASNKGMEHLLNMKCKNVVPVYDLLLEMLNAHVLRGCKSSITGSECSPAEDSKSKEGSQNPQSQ

Cc1ccc2nc(-c3ccccc3Cl)cc(C(=O)Nc3cc(C)on3)c2c1
EC50 [1]: > 160 µM (inactive)
EC50 [2]: 3.33 µM (active)
IC50 [3]: 45.5 µM (active)

CN1CCN(C2=C(Cl)C(=O)N(c3cccc([N+](=O)[O-])c3)C2=O)CC1
IC50 [4]: > 100 µM (not active)
IC50 (Bcl-2-related protein A1 [5]): 3.94 µM (active)
IC50 (Bcl-2-related protein A1 [6]): 6.79 µM (active)

Cc1cccc(Cn2c(O)c(N=NC(S)=Nc3ccccc3F)c3ccccc32)c1
EC50 [7]: 0.663 µM (active)
EC50 [8]: 1.09 µM (active)
EC50 [9]: 2.68 µM (active)

CCn1c(SCC(=O)Nc2ccc(Cl)cc2)nnc1C1CC1
IC50 [10]: > 93.1 µM (not active)
IC50 [11]: 35.9 µM (inactive)
IC50 (Steroidogenic factor 1): 6.13 µM (active)
IC50 [12]: 35.9 µM (inactive)

COc1cccc(NC(=O)/C=C\c2ccc(Cl)cc2)c1
AC50 (Cytochrome P450 2C19): 3.98 µM (inconclusive)

Cc1cccc(N2C(=O)C(Cl)=C(N3CCN(CCOCCO)CC3)C2=O)c1
IC50 [4]: > 100 µM (not active)
IC50 (Bcl-2-related protein A1 [5]): 6.43 µM (active)
IC50 (Bcl-2-related protein A1 [6]): 4.46 µM (active)

C/C(=N\Cc1ccco1)c1c(C)nn(-c2nc3ccccc3s2)c1O
IC50 [10]: > 93.1 µM (not active)
IC50 (Caspase-3): 3.72 µM (active)
IC50 [13]: 3.48 µM (active)
IC50 [14]: 9.47 µM (active)
IC50 [15]: 11.5 µM (active)

CSC(=S)N/N=C/c1ccc(Br)cc1
EC50 (HEK293 [16]): > 20 µM (inactive)
IC50 (HEK293 [17]): > 20 µM (inactive)
IC50 (HEK293 [18]): > 20 µM (inactive)
IC50 (HEK293 [19]): 14.2 µM (inactive)
EC50 [8]: 0.3 µM (active)

CCC(=O)Oc1ccc(/C(CC)=C(\CC)c2ccc(OC(=O)CC)cc2)cc1 [DIETHYLSTILBESTROL DIPROPIONATE]
EC50 [20]: 4.6 µM (active)
EC50 [21]: 3.87 µM (active)
EC50 (Estrogen receptor): 18.1 µM (active)
CC50 (Vero): > 40 µM (active)

Cc1cc(C(=O)COC(=O)CN2C(=O)NC(C)(C)C2=O)c(C)n1Cc1ccccc1
EC50 [22]: > 30 µM (not active)

CC(CCc1ccccc1)NC(=O)c1cc2sccc2n1C (stereo not given)
IC50 [3]: > 100 µM (active)

Cc1cc(C(=O)CN2CCN(C(=O)c3ccco3)CC2)c(C)n1Cc1ccccc1
EC50 [22]: > 30 µM (not active)

Cc1c(Cl)cccc1NC(=O)CC1SCCNC1=O (stereo not given)
IC50 (Estrogen receptor beta): > 50 µM (not active)
